According to paper PMC10861852, “Loss of activation by GABA in vertebrate delta ionotropic glutamate receptors” (Proceedings of the National Academy of Sciences of the …, 2024):
Substitutions are numbered along the chain they refer to.

Experiments:
DanGluD2A^Lc = assay: Two-electrode voltage clamp, inhibition of constitutive current in oocytes; type: cell-based, Danio rerio; settings: lurcher-mutant receptor
RatGluD2^5x = biological target: T1, RatGluD2^5x (Rattus norvegicus, UniProt Q63226, A686S/K694R/N720P/P806D/Y613F); assay: Two-electrode voltage clamp, responses to ligands in mutant-expressing oocytes; type: cell-based; settings: ligands 30 mM
T1 construct: expressed in transfected cells; host or cells: Xenopus laevis oocytes injected with mRNA
T1 sequence (Q63226 24-1007 Y613F/A686S/K694R/N720P/P806D): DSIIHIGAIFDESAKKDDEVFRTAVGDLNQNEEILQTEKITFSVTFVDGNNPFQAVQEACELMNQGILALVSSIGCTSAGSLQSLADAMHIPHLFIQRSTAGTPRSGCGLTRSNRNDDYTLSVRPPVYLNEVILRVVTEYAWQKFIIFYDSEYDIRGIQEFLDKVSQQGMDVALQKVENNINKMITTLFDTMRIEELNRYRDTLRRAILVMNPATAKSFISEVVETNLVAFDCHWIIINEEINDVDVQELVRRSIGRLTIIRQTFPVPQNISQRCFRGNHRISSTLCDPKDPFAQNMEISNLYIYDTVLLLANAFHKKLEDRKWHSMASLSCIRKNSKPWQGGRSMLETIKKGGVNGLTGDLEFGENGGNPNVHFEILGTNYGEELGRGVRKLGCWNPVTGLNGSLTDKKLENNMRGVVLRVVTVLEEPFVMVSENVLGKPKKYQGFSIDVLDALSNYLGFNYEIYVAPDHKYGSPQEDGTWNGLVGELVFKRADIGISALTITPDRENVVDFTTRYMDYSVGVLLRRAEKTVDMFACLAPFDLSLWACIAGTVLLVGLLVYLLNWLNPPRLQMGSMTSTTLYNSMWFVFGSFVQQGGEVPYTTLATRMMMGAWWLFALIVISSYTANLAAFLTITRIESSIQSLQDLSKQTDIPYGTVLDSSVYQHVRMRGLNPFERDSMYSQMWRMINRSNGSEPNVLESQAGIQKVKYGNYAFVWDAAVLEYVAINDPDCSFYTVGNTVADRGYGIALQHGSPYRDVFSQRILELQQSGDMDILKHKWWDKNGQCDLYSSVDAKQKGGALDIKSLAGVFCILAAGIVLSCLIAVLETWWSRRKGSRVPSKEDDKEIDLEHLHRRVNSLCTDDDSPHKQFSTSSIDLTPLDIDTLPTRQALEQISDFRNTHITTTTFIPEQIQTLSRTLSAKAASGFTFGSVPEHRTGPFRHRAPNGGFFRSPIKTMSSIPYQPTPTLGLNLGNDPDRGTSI
Text: (§1) If the 10 mutations discussed above drove the loss of function in vertebrate delta iGluRs, one might expect that the latter could be “reawakened” via active invertebrate delta iGluR-like mutations here. We therefore engineered mutant RatGluD2 iGluRs to contain at these positions the equivalent residues from starfish delta iGluRs. These mutants were RatGluD2^5x, containing Y613F, A686S, K694R, N720P, and P806D substitutions (pink in Fig. 6A), and RatGluD2^9x, additionally containing N763K, D753Q, Q786M, and R787V (cyan in Fig. 6A).
(§2) Fig. 6. AcaGluD-like mutations alter RatGluD2 receptor function. (A) D-serine bound RatGluD2 from X-ray structure PDB:2v3u ([13]). Selected amino acid residues are indicated, colored, shown as sticks, and labeled 5×, 9×, 10×, and/or Lc according to the multiple mutants they were incorporated into. 10× mutant included 10×, 9×, and 5× positions. 9× included 9× and 5×. 5× included only 5×. […] (B–E) Example current responses to different neurotransmitter ligands (30 mM) and to pore blocker pentamidine (Pent, 100 μM) in oocytes expressing indicated RatGluD2 mutants. The dashed line indicates zero current baseline. (F) Individual (dots) and mean (columns) responses to ligands in oocytes expressing indicated RatGluD2 mutants (n = 4 to 5).

RatGluD2^9x = biological target: T2, RatGluD2^9x (Rattus norvegicus, UniProt Q63226, A686S/D753Q/K694R/N720P/N763K/P806D/Q786M/R787V/Y613F); assay: as above; type: cell-based; settings: ligands 30 mM
T2 construct: expressed in transfected cells; host or cells: Xenopus laevis oocytes injected with mRNA
T2 sequence (Q63226 24-1007 Y613F/A686S/K694R/N720P/D753Q/N763K/Q786M/R787V/P806D): T1 sequence (Q63226 24-1007 Y613F/A686S/K694R/N720P/P806D) with D730Q, N740K, Q763M, R764V
Text: as §1, §2

SMILES	effect on constitutive currents (DanGluD2A^Lc)	current response to ligand (RatGluD2^5x)	current response to ligand (RatGluD2^9x)	inactivation of constitutive current relative to D-serine (DanGluD2A^Lc; n = 4) [%]
N[C@H](CO)C(=O)O [D-serine]	inactivated	no responses	no responses	
NCCCC(=O)O [GABA, γ-aminobutyric acid]		no responses	no responses	58 ± 8
NCC(=O)O [glycine]	inactivated	no responses	no responses	
